# Peptide text beside a SMILES is read from it. * marks the point of attachment. Cbz = O=C(OCc1ccccc1)*; CH2F = FC*
# Experiments:
# CASP9 = target: T1, CASP9 (Mus musculus, UniProt Q8C3Q9); test: Cisplatin model of kidney injury, mice treated with CASP9 inhibitor; format: in vivo
# T1 construct: from tissue; host or cells: living mice; read-outs in serum and kidney
# Method: Casp9 HZ mice were obtained. Mice were injected intraperitoneally with FA (#10752485 ACROS Organics, 250 mg/kg, dissolved in […] sodium bicarbonate) or sodium bicarbonate (#56014, Sigma-Aldrich) and euthanized on day 7. Mice were euthanized on day 7 after left ureteral ligation or sham surgery. […] Mice were euthanized 18 weeks after uninephrectomy and following low-dose STZ (50 mg/kg, i.p. for 5 days) (streptozotocin, Santa Cruz Biotechnology, #U-9889) or PBS injection. Aging mice were euthanized at 2 years of age. Transgenic mice (Nphs1-rtTA/TRE-APOL1-G2) were placed on a doxycycline diet to induce transgene expression and euthanized.
# RNA was isolated from kidney tissue or cells using TRIzol (Invitrogen, #15596018). RNA was reverse-transcribed using the High-Capacity cDNA Reverse Transcription Kit (Applied Biosystems, #4368813), and qRT-PCR was run in the ViiA 7 System (Life Technologies) instrument using SYBR Green Master Mix (Applied Biosystems, #4367659) and gene-specific primers. For quantitative analysis, samples were normalized to glyceraldehyde-3-phosphate dehydrogenase (GAPDH) with the ΔΔCt method.
# BUN was determined by a TRACE DMA Urea kit (Thermo Electron Corporation, #TR12003), according to the manufacturer's instructions. Electrolytes (Na, K, and Cl) and hemoglobin were measured with the iSTAT Portable Clinical Analyzer using i-STAT CHEM8+ cartridge (Abaxis, #10023291). Kidney tissue was stained with hematoxylin and eosin to investigate renal injury. The degree of tubulointerstitial damage was scored semiquantitatively on a 0 to 5+ scale, according to the percentage of the area affected by hydropic degeneration, hyaline casts, cytoplasmic vacuolization, loss of the brush border, and tubular lumen dilation (0=normal, 1=<10%, 2=10 to 25%, 3=26 to 50%, 4=51 to 75%, and 5=>75%). Sirius red staining was performed according to the manufacturer's protocol (Polysciences, #24901) to determine the degree of fibrosis. For each analysis, five to eight fields were randomly selected and quantified using the Fiji software. Each dot represents the mean score of a single animal.
# Several small molecular inhibitors that target CASP9 have been developed with good specificity. […] Serum creatinine and BUN levels were lower, and renal expression of Havcr1 was dampened in Z-LEHD-FMK-treated mice.
# primary TECs = test: Cisplatin-treated primary kidney tubule cells from wild-type and Chmp1a+/- mice; format: cell-based
# Method: For primary culture of renal tubule cells, kidneys were collected from 2- to 4-week-old male mice. Cells were isolated by 2 mg/ml collagenase I (Gibco #17018-029) digestion for 30 min at 37° C. with gentle stirring and filtered through a 100-μm mesh. The cell suspension was cultured in RPMI 1640 (Corning #10-040-CM) supplement with 10% FBS (Atlanta Biologicals #S11950), 20 ng/ml EGF (Peprotech #AF-100-15), 1×ITS (Gibco #51500-056), and 1% penicillin-streptomycin (Corning #30-002-CI) at 5% CO2 and 37° C.
# Primary cultured renal tubule cells or NRK52E cells were incubated with 1 μM transferrin (Thermo Fisher #T13342) for 4 h, or 5 μM mitoSOX (ThermoFisher #M36008) for 10 min, or 2 μM BODIPY™ 581/591 C11 (Thermo Fisher #D3861) for 0.5 h, or 20 ng/ml dextran conjugated to 488 (Thermo Fisher #D22910) for 2 h, at 5% CO2 and 37° C., respectively. After washing with PBS, cells were imaged directly under the confocal or regular fluorescence microscope.
# (§1) Mouse primary tubular epithelial cells from wild-type, mutant mice or NRK52E cells were plated in 96-well plate. Transfection of NRK52E cells with siRNA was carried out as described above. […] Cells were harvested and stained with trypan blue (Thermo Fisher #T10282) to visualize dead cells. Cell counts were analyzed in Countess Auto Counter (Invitrogen, C10227). LDH release was quantified using CytoTox 96 Non-Radioactive Cytotoxicity Assay (Promega #G1780). Medium was collected in triplicates, spun down, and incubated in a 96-well plate with the CytoTox reagent for 20-30 min. After adding the stop solution, the absorbance signal was measured at 490 nm in a plate reader. The ratio between dead cell and live cell was calculated through the measurement using MultiTox-Fluor Multiplex Cytotoxicity Assay (Promega #9201). Cells were incubated in assay buffer containing live cell substrate GF-AFC and dead cell substrate bis-AAF-R110 for 30 min at 37° C. The plate fluorescence was measured using a plate reader as following: viability: excitation ˜400 nm; emission ˜505 nm. cytotoxicity: excitation ˜485 nm; emission ˜520 nm.
# [1] = test system: Rat epithelial cells (NRK-52E); test: Cisplatin-induced LDH release in siControl and siChmp1a transfected cells pretreated with cell death inhibitors; format: cell-based; conditions: siControl and siChmp1a cells pretreated with inhibitor 18 h, then 20 μM cisplatin 24 h
# Method: Rat epithelial cells (NRK-52E; ATCC (CRL-1571)) were cultured in DMEM with 5% fetal bovine serum (FBS). Dpep1 and Chmp1a siRNA were purchased from Dharmacon. Dpep1-overexpressing vector pCMV6-Entry was purchased from OriGene Technologies, Inc. Transfection of gene-targeting siRNA, negative control siRNA, and overexpressing plasmid were performed using Lipofectamine 3000.
# For transfection, cells were seeded in six-well plates, grown overnight until 60-70% confluency, and then transfected with 50 nM (final concentration) siRNA or 5 μg Dpep1-overexpression plasmids. Transfection efficiency was determined under a fluorescence microscope by the presence of Cy3 transfection control. […] After 24 h of Dpep1 siRNA transfection, cells were treated with cell death inducers for 18-20 h, respectively: 5 μM Nigericin (Sigma #N7143); 5 μM CPT (Cayman #11694); 5 μM erastin (Cayman #17754), 20 μM FIN56 (Cayman #25180), 5 μM FINO2 (Cayman #25096) and 5 μM RSL3 (Cayman #19288).
# as §1
# ferroptosis = test: Cisplatin-induced injury in Chmp1a+/- mice injected with liproxstatin; format: in vivo; conditions: for protection from cisplatin-induced injury / kidney disease: Chmp1a+/- (heterozygous) mice
# Method: Eight- to ten-week-old male mice were used in this study. All mice were maintained under SPF conditions with ambient temperature 20-22, humidity 50-70%, and a 12/12 h light/dark cycle. All animal experiments were reviewed and approved and were performed in accordance with the institutional guidelines. Dpep1 mutant mice were generated by co-injection of Cas9 mRNA (100 ng/μl; ThermoFisher, A29378), sgRNA (50 ng/μl) in CRISPR Cas9 Mouse Targeting Core of University of Pennsylvania. Two sgRNAs were generated with Guide-it™ sgRNA In Vitro Transcription Kit (Takara #632635). Chmp1a mutant mice were imported from Mutant Mouse Regional Resource Center of UC Davis (#031089-UCD). For FA-induced nephropathy mouse models, 8-week-old male wild-type and Dpep1^+/− or Chmp1a^+/− mice were injected with FA (250 or 200 mg/kg, dissolved in 300 mM sodium bicarbonate) intraperitoneally and euthanized on day 7. […] Mice were euthanized on day 3. For the UUO model, mice underwent ligation of the left ureter and were euthanized on day 7, and sham-operated mice were used as controls.
# Serum creatinine was measured by Creatinine Enzymatic and Creatinine Standard (DIAZYME #DZ072B-KY1). Serum BUN was measured by Infinity™ Urea Liquid Stable Reagent (Pointe Scientific #B7552150). Both measurements were performed according to the manufacturers' instructions.
# RNA was isolated from mouse kidneys or cultured cells using Trizol reagent (Invitrogen) and was reverse transcribed into cDNA using cDNA Archival Kit (Life Technologies). Real-time RT-PCR was performed using SYBR Green Master Mix (Applied Biosystems).
# FASN = FASN (Mus musculus, UniProt P19096); conditions: primary TECs; various concentrations for 48 h
# Chain of FASN (P19096 whole entry): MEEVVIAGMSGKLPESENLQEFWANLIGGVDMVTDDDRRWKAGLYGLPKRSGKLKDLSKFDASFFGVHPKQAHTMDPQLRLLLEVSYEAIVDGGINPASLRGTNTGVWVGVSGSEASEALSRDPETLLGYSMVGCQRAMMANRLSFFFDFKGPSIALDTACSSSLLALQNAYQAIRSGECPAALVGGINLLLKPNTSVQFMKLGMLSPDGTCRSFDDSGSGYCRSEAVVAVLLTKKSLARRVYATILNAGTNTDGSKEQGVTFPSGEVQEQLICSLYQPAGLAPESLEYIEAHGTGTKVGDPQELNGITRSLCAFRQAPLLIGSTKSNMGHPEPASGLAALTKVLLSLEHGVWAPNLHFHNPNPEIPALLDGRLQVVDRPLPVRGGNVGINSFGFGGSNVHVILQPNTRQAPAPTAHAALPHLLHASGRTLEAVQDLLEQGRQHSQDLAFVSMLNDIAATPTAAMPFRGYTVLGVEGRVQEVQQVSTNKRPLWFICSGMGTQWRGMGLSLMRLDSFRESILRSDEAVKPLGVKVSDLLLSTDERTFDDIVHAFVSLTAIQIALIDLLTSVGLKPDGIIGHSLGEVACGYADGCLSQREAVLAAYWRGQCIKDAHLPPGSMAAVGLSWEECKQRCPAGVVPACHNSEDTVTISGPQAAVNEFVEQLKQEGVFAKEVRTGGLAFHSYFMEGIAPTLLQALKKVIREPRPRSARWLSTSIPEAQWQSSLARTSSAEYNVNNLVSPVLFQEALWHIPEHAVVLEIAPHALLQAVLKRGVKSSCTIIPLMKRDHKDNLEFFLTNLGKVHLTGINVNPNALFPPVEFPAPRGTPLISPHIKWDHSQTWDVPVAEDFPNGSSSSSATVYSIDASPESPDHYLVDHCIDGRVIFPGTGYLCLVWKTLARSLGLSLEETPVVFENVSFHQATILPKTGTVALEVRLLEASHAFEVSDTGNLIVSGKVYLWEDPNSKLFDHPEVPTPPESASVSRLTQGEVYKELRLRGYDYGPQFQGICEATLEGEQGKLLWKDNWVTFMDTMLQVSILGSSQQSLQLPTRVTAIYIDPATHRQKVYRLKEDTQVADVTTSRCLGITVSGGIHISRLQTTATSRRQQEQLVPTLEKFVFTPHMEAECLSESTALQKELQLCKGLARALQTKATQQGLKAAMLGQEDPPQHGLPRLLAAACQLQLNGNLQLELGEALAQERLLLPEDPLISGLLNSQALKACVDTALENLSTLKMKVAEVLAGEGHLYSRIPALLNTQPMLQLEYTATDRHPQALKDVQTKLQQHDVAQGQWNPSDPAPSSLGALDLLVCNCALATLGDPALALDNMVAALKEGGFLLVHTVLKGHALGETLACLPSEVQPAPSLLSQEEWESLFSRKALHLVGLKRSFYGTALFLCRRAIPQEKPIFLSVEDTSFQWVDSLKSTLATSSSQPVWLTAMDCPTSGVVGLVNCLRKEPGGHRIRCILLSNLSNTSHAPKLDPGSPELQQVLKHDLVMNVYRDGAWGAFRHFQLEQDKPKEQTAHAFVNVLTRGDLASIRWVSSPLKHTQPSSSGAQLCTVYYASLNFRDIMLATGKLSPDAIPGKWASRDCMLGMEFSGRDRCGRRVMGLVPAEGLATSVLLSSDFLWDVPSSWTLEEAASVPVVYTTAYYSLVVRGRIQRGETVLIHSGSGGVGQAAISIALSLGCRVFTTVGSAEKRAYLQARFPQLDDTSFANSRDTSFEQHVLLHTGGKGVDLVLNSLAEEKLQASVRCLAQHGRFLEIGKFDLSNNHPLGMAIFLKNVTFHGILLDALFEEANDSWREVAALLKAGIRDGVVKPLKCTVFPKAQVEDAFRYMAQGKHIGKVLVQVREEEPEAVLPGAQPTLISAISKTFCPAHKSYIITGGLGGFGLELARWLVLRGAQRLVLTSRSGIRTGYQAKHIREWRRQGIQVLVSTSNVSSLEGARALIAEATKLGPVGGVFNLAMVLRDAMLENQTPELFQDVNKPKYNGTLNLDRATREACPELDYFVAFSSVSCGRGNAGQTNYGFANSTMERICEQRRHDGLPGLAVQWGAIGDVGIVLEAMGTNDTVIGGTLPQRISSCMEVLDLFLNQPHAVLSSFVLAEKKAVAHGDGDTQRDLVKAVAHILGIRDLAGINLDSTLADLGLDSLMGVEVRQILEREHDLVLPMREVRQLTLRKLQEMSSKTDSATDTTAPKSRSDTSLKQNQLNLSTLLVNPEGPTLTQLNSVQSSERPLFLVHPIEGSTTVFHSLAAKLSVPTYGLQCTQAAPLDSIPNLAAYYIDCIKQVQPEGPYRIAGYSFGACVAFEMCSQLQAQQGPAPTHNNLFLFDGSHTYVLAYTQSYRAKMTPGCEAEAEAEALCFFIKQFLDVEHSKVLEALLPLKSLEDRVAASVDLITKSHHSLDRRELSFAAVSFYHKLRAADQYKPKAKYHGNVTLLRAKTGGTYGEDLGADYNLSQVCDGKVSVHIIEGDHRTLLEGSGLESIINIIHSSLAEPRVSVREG
# [2] = cisplatin-injected mice, inhibitor daily starting 1 day before cisplatin, vs vehicle
# T1 sequence (Q8C3Q9 whole entry): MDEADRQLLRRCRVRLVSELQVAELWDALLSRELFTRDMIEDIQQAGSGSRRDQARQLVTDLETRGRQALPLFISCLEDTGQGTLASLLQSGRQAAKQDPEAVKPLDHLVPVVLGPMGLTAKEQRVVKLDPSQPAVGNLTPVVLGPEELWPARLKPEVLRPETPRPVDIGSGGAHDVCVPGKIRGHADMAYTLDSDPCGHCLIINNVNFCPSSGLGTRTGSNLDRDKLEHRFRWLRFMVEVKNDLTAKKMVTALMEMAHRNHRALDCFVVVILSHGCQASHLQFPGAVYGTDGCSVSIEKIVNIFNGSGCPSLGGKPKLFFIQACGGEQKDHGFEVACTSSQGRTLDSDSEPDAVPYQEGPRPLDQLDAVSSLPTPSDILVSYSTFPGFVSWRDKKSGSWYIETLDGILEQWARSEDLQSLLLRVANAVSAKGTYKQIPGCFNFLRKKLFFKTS
# T1 sequence (O88879 whole entry partner): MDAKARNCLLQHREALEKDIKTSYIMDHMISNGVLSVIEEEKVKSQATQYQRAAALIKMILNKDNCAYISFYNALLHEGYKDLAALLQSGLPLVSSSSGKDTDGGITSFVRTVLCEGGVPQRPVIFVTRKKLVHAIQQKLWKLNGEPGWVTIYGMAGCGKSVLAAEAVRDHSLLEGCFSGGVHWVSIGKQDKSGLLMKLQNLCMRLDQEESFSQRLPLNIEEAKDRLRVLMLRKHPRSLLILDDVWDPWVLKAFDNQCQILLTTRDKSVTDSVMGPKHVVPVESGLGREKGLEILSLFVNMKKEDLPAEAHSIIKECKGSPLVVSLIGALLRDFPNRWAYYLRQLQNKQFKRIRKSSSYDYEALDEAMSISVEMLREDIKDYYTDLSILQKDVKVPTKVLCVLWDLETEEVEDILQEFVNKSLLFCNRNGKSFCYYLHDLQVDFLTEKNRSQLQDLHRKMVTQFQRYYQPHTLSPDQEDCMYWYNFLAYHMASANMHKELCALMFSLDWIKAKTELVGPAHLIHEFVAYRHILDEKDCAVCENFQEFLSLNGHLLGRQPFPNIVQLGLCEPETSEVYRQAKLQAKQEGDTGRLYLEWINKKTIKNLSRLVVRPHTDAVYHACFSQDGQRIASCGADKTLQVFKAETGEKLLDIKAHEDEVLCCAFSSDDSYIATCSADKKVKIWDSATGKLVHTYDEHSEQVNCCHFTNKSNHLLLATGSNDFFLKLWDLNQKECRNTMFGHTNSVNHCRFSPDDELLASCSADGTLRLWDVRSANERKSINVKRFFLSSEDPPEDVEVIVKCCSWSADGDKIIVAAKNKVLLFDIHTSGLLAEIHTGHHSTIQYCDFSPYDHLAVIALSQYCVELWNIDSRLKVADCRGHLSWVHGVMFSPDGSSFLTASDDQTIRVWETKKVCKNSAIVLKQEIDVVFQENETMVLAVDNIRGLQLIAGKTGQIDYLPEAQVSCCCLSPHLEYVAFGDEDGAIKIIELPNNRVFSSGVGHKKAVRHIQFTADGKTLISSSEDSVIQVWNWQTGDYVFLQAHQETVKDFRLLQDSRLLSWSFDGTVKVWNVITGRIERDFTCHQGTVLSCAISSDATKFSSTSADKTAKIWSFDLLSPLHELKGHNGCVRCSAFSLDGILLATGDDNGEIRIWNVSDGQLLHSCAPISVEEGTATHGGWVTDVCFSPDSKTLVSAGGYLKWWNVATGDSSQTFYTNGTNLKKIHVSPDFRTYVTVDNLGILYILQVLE
# T1 sequence (P62897 2-105 partner limits assumed): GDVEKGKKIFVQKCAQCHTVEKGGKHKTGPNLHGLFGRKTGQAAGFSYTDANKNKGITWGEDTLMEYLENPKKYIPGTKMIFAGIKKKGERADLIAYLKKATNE
structure (smiles),measurement,setting,value
COC(=O)CC[C@H](NC(=O)[C@H](CC(C)C)NC(=O)OCc1ccccc1)C(=O)N[C@@H](Cc1cnc[nH]1)C(=O)N[C@@H](CC(=O)OC)C(=O)CF [Z-LEHD-FMK] (Cbz-LE(OMe)HD(OMe)-CH2F),"inflammatory cytokines (Il1b, Csf2, Tnfa, and Cxcl10) and Icam1 expression","CASP9; after cisplatin injury, qRT-PCR, kidney",lower
same,kidney function and kidney damage,CASP9; cisplatin-injected mice,improved kidney function and lessened kidney damage
same,BUN level,CASP9; [2],lower
same,serum creatinine level,CASP9; [2],lower
same,renal expression of Havcr1,"CASP9; cisplatin-injected mice, vs vehicle",dampened
Clc1cccc(CN=C2Nc3ccccc3NC23CCNCC3)c1 [liproxstatin1],cisplatin-induced cytotoxicity,"primary TECs; Chmp1a+/- primary TECs, compared with inhibitors of necroptosis, apoptosis, pyroptosis",alleviated
same,lipid peroxidation (C11 BODIPY 581/591) induced by cisplatin,primary TECs; primary TECs from wild-type or Chmp1a+/- mice,lower
same,LDH release,[1],reduced this effect
same,protection from cisplatin-induced injury / kidney disease,ferroptosis; listed as Liproxstatin1,protected
same,protection from cisplatin-induced injury / kidney disease,ferroptosis; listed as liproxstatin,marked protection
same,Kidney injury marker Kim1,"ferroptosis; Chmp1a+/- mice, cisplatin",lower
same,serum creatinine level,"ferroptosis; Chmp1a+/- mice, cisplatin",reduced
COC(=O)C[C@H](NC(=O)[C@H](C)NC(=O)[C@@H](NC(=O)OCc1ccccc1)C(C)C)C(=O)CF [Z-VAD-FMK] (Cbz-Val-Ala-Asp(OMe)-CH2F),LDH release,[1],No change
COCc1[nH]c(C(F)(F)F)nc1-c1cc(C(=O)N2CC(c3ccc(C#N)cc3)C2)c(C)cc1C [TVB-3664],cell death (cell viability),FASN,did not increase cell death
"CN1C(=O)C(Cc2c[nH]c3ccccc23)NC1=S (stereo not shown) [Nec-1, necrostatin-1]",LDH release,[1],No change
CCO[C@@H]1OC(=O)C[C@@H]1NC(=O)[C@@H]1CCCN1C(=O)[C@@H](NC(=O)c1ccc(N)c(Cl)c1)C(C)(C)C [Vx765],LDH release,[1],No change

# — US20240229043A1, “Methods and Compositions for Treating, Ameliorating, and/or Preventing Chronic Kidney Disease (CKD) and Complications thereof by Regulating DPEP1, CASP9, ACSS2 and/or FASN” (THE TRUSTEES OF THE UNIVERSITY OF PENNSYLVANIA, priority 2022, published 2024)
